Where a name gives a salt, the structure may show the parent alone.
Key:
[1] = system: isolated rabbit thoracic aorta preparations; assay: Study on vascular tone: vasorelaxation of noradrenaline-precontracted aortic rings; assay type: cell-based; conditions: for IC50: Oryctolagus cuniculus, concentration giving 50% reversal of NA (1 μM) contraction, rabbit thoracic aorta rings with functional endothelium, read-out: IC50 (μM) ± sem
Method: The ability of ACE inhibitor nitroderivatives to induce vasorelaxation in comparison to native ACE inhibitors, was tested in vitro in isolated rabbit thoracic aorta preparations (Wanstall J. C. et al., Br. J. Pharmacol., 134:463–472, 2001). Male New Zealand rabbits were anaesthetized with thiopental-Na (50 mg/kg, iv), sacrificed by exsanguinations and then the thorax was opened and the aorta dissected. Single ring preparations (4 mm in length) of thoracic aorta were set up in physiological salt solution (PSS) at 37° C. in small organ chambers (5 ml). The composition of PSS was (mM): NaCl 130, NaHCO3 14.9, KH2PO4 1.2, MgSO4 1.2, HEPES 10, CaCl2, […] (95% O2/5% CO2; pH 7.4). Each ring was mounted under 2 g passive tension in 5 ml organ bath. Isometric tension was recorded with a Grass transducer (Grass FT03) attached to a BIOPAC MP150 System. Preparations were allowed to equilibrate for 1 h, then contracted submaximally with noradrenaline (NA, 1 μM) and, when the contraction was stable, acetylcholine (ACh, 10 μM) was added. A relaxant response to ACh indicated the presence of a functional endothelium. When a stable precontraction was reached, a cumulative concentration-response curve to either of the vasorelaxant agents was obtained in the presence of a functional endothelium. Time intervals between different concentrations were based on the time needed to reach a full response. Moreover, the effect of the soluble guanylyl cyclase inhibitor ODQ (1-H-(1,2,4)-oxadiazol(4,3-a)quinoxalin-1-one) on the dilator responses elicited by the compounds was examined preincubating the aortic rings with ODQ (10 μM) for 20 min. Responses to vasorelaxing agents were measured from the plateau of NA contraction. The IC50 (concentration giving 50% reversal of NA contraction) was interpolated from the plots of relaxant-response vs log molar concentration of tested compound.
IC50 is the concentration which inhibits 50% of the response.

[2] = system: rats with renal mass reduction (RMR); assay: Proteinuria and renal disease progression in rats with renal mass reduction (RMR); assay type: in vivo, rat; conditions: for effect on proteinuria (in words): repeated oral treatment, at 3 months
Method: Sprague-Dawley rats underwent right nephrectomy and ligation of two or tree branches of the main renal artery according to Olson et al. (1982). […] A group of sham operated rats was also included (Sham). Urinary protein excretion measurements were performed before the treatment and every month thereafter. Twenty-four hour urine samples were collected using metabolic cages and proteinuria was determined by the modified Coomassie Blu G dye-binding assay for the proteins with bovine serum albumin as standard.

SHR rats = assay: Hypotensive properties in SHR rats; assay type: in vivo, rat; conditions: i.v. bolus injection of equimolar doses, conscious SHR rats
Method: After at least 5 days after surgical catheterization of the arterial and venous femoral, conscious old (>9 months) male SHR rats were injected iv bolus with Enalapril, compound of Ex. 3 (equimolar doses) and vehicle (saline) (0.0335 mL/100 g body weight). Blood pressure and heart rate were recorded before (control period 1 h) and after IV bolus administration for up to 4 h.

[3] = NO release (NOx formation) in rat plasma; assay type: in vitro ADME; conditions: 250 μM, up to 240 min
Method: Rat blood was freshly collected with Na-heparin as anticoagulant from male Sprague Dawley rats weighing about 300–330 g. Blood was immediately centrifuged to obtain plasma. Plasma was incubated for up to 240 min at 37° C. in presence of either compound of Ex. 3 (250 μM) or of NO-ENA (250 μM). At fixed times points samples were withdrawn from the incubation and NOx (nitrites+nitrates), the oxidative products of NO, were determined by GPC (gas phase chemiluminescence).

[4] = system: L-NAME-induced hypertension in rats; assay: L-NAME-induced hypertension in rats; assay type: in vivo, rat; conditions: for Systolic blood pressure (mmHg): 2 hours after administration, equimolar doses, basal 140
Method: Male Wistar rats weighing 225–250 g were used. The rats were divided into two groups. Under halothane anesthesia, radiotelemetry probes were inserted into descending aorta to measure systolic blood pressure (SBP). Baseline blood pressure was recovered (103 mmHg). Both groups were then provided with drinking water supplemented with L-NAME (400 mg/L) for 7 days to induce hypertension. After this treatment all the animals have a SBP of about 140 mmHg. The rats were then treated orally each day with enalapril or an equimolar dose of enalapril-nitroderivative (compound Ex. 3). Blood pressure recordings were made 2 hours after drug administration. The study was continued over three days period of drug administration.

ACE = target: T1, ACE (Mus musculus, UniProt P09470); assay: Plasma ACE activity in CD1 mouse after i.v. dosing (FAPGG spectrophotometric method); assay type: in vivo; conditions: % vs basal condition
T1 construct: The plasma was stored at −20° C. until the ACE activity measurements; from tissue; host or cells: plasma of CD1 mice (heparinized blood from the vena cava)
T1 sequence (P09470 35-1237 limits assumed): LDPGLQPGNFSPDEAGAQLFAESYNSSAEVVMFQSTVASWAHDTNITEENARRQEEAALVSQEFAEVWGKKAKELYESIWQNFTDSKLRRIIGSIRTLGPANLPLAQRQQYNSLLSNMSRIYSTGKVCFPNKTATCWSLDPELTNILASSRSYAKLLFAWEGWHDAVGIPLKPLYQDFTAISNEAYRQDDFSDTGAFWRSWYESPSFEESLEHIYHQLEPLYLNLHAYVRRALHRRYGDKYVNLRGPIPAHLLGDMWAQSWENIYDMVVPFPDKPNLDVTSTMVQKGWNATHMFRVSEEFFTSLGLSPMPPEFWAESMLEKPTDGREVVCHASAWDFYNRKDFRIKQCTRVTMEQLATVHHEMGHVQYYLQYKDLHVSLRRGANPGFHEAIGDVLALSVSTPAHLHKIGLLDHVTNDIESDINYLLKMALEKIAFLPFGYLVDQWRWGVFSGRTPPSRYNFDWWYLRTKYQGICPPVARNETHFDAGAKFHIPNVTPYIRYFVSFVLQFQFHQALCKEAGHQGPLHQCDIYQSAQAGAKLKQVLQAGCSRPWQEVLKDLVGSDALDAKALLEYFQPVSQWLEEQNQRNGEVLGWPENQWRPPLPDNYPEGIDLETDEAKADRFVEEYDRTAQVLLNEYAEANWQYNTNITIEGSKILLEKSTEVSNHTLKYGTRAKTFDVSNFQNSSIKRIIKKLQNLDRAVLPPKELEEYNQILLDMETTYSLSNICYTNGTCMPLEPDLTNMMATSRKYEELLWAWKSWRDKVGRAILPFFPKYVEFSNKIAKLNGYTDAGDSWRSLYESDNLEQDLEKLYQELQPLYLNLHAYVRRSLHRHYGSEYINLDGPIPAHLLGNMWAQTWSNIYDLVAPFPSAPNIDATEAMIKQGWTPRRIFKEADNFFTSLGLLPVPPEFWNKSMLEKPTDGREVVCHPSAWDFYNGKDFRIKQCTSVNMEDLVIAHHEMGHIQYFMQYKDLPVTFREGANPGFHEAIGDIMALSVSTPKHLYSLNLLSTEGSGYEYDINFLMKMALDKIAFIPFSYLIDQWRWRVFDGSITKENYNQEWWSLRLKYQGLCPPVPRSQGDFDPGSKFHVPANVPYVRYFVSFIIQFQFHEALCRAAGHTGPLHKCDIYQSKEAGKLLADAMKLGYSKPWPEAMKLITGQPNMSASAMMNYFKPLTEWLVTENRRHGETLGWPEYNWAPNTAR
Method: CD1 mouse were treated i.v. with a single dose of 3 mg/Kg of enalapril and with a equimolar doses of enalapril nitroderivatives (compound of Ex. 3; 3.6 mg/Kg) and NO-ENA (3.92 mg/Kg). […] Heparinized blood samples were centrifuged at 1000 g for 20 min at 4° C. The plasma was stored at −20° C. until the ACE activity measurements. The ACE activity was determined by a spectrophotometric method (Sigma) based on the enzymatic reaction catalysed by ACE, where the FAPGG was hydrolysed to FAP. FAPGG hydrolysis produced a decrease in the absorbance at 340 nm, a marker of ACE activity in the sample.
The results, reported in Table 3, are expressed as % of ACE activity vs basal condition.

[5] = 3rd month of daily oral treatment, Compound of Ex. 3 50 mg/kg, enalapril 7.5 mg/kg
[6] = 21 days after renal ablation, before the treatment
[7] = Basal (before renal ablation and treatment)
[8] = 15 min after single i.v. dose equimolar to 3 mg/Kg enalapril
[9] = 30 min after single i.v. dose equimolar to 3 mg/Kg enalapril
[10] = 1 h after single i.v. dose equimolar to 3 mg/Kg enalapril
[11] = 3 hs after single i.v. dose equimolar to 3 mg/Kg enalapril
[12] = 6 hs after single i.v. dose equimolar to 3 mg/Kg enalapril
[13] = 24 hs after single i.v. dose equimolar to 3 mg/Kg enalapril

| SMILES | IC50 [1] [µM] | Proteinuria (mg/day) ± sem [2, 5] [mg/day] | Proteinuria (mg/day) ± sem [2, 6] [mg/day] | Proteinuria (mg/day) ± sem [2, 7] [mg/day] | effect on proteinuria (in words) [2] | decrease in blood pressure compared with enalapril (in words) (SHR rats) | NO-release rate compared with NO-ENA (in words) [3] | Systolic blood pressure (mmHg) ([4]; 1st day of oral treatment) | Systolic blood pressure (mmHg) ([4]; 2nd day of oral treatment) | Systolic blood pressure (mmHg) ([4]; 3rd day of oral treatment) | effects on L-NAME-induced hypertension compared with enalapril (in words) ([4]; oral, equimolar dose) | ACE Activity (% of activity) (ACE; [8]) [%] | ACE Activity (% of activity) (ACE; [9]) [%] | ACE Activity (% of activity) (ACE; [10]) [%] | ACE Activity (% of activity) (ACE; [11]) [%] | ACE Activity (% of activity) (ACE; [12]) [%] | ACE Activity (% of activity) (ACE; [13]) [%] | relaxation of NA-contracted aortic rings (in words) ([1]; cumulative concentration-response curve) |
| --- | --- | --- | --- | --- | --- | --- | --- | --- | --- | --- | --- | --- | --- | --- | --- | --- | --- | --- |
| C[C@H](N[C@@H](CCc1ccccc1)C(=O)OCCCO[N+](=O)[O-])C(=O)N1CCC[C@H]1C(=O)O [Compound of Ex. 1, N-[(1S)-1-(3-nitrooxypropoxycarbonyl)-3-phenylpropyl]-L-alanyl-L-proline hydrochloride] | 21.9 ± 6.9 |  |  |  |  |  |  |  |  |  |  |  |  |  |  |  |  |  |
| CCOC(=O)[C@H](CCc1ccccc1)N[C@@H](C)C(=O)N1CCC[C@H]1C(=O)OCCCO[N+](=O)[O-].O=C(O)/C=C\C(=O)O [Compound of Ex. 3, N-[(1S)-1-(Ethoxycarbonyl)-3-phenylpropyl]-L-alanyl-L-proline 3-nitrooxypropyl ester hydrogen maleate] | 30.9 ± 8.4 | 163.9 | 76.5 ± 20.3 | 17.5 ± 1.3 | reduced proteinuria at 3 months | higher decrease in blood pressure than enalapril | much slower than the NO-release of NO-ENA | 120 | 117 | 115 | superior to those of enalapril | 2.9 | 3.7 | 4.1 | 11.1 | 49.2 | 83.55 |  |
| CCOC(=O)[C@H](CCc1ccccc1)N[C@@H](C)C(=O)N1CCC[C@H]1C(=O)O [Enalapril] | > 100 | 290.5 ± 43.2 | 72.4 ± 18.3 | 15.7 ± 1.2 | only a marginal effect |  |  | 128 | 125 | 120 |  | 4.8 | 5.1 | 7.3 | 19.6 | 50.8 | 100 | did not produce relaxation at any of the concentration tested |
| CCOC(=O)[C@H](CCc1ccccc1)N[C@@H](C)C(=O)N1CCC[C@H]1C(=O)Oc1cccc(CO[N+](=O)[O-])c1.O=C(O)/C=C\C(=O)O [NO-ENA, enalapril 3-(nitrooxymethyl)phenyl ester maleate] |  |  |  |  |  |  |  |  |  |  |  | 5.4 | 4.8 | 9.3 | 23.6 | 55.2 | 90.1 |  |
